Measurements reported in patent US9133184B2, “Chromen-2-one derivatives and their use as monoamine neurotransmitter re-uptake inhibitors” (ANIONA APS, priority 2010, dated 2015).
Structures can show the parent of a compound that is named as a salt.

Experiments:
Type in all cases: biochemical
[1] = system: serotonine (5-HT) reuptake in synaptosomes; experiment: Inhibition of 5-HT reuptake in synaptosomes; conditions: 3H-5-HT, read-out: 5-HT-uptake IC50
Procedure: (§1) Compounds were tested for their ability to inhibit the reuptake of the monoamine neurotransmitters dopamine (DA) noradrenaline (NA) and serotonine (5-HT) in synaptosomes as described in WO 97/16451 (NeuroSearch A/S).
(§2) The test values are given as IC50 (the concentration (μM) of the test substance which inhibits the specific binding of ^3H-DA, ^3H-NA, or ^3H-5-HT by 50%).

[2] = system: dopamine (DA) reuptake in synaptosomes; experiment: Inhibition of DA reuptake in synaptosomes; conditions: 3H-DA, read-out: DA-uptake IC50
Procedure: as §1, §2

[3] = system: noradrenaline (NA) reuptake in synaptosomes; experiment: Inhibition of NA reuptake in synaptosomes; conditions: 3H-NA, read-out: NA-uptake IC50
Procedure: as §1, §2

IC50 [1]: 2.9 nM
IC50 [2]: 70 nM
IC50 [3]: 3.8 nM
SMILES: COc1cc2ccc(O[C@@H]3C[C@H]4CC[C@@H](C3)N4)cc2oc1=O [Compound 1.1, Exo-7-[(-8-azabicyclo[3.2.1]octan-3-yl)oxy]-3-methoxy-chromen-2-one hydrochloride]
